Experimental data reported in US6525001B1, “Substituted pyrimidine and pyridine herbicides” (Mid-American Commercialization Corporation, priority 1997, dated 2003).

Experiments:
Type in all cases: in vivo
[1] = test system: smallflower flatsedge (Cyperus difformis); assay: Test B flood test
Method in brief: (§1)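 Read-out is a visual response score from 0 (no effect) to 10 (complete control), assigned by comparison with untreated controls. Treatment was applied at the 2-leaf stage, and plants stayed in the greenhouse for twelve to sixteen days before scoring.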

[2] = test system: bamyardgrass (Echinochloa crus-galli); assay: Test B flood test
Method in brief: as §1

[3] = test system: duck salad (Heteranthera limosa); assay: Test B flood test
Method in brief: as §1

rice (Oryza sativa) = assay: Test B flood test
Method in brief: as §1

[4] = test system: bedstraw (Galium aparine); assay: Test B pre-/postemergence; set-up: key: 0 is no effect; 10 is complete control
Excerpt: (§2) Seeds of bedstraw (Galium aparine), blackgrass (Alopecurus myosuroides), broadleaf signalgrass (Brachiaria decumbens), cocklebur (Xanthium strumarium), corn (Zea mays), crabgrass (Digitaria sanguinalis), giant foxtail (Setaria faberii), lambsquarters (Chenopodium album), momingglory (Ipomoea hederacea), pigweed (Amaranthus retroflexus), rape (Brassica napus), soybean (Glycine max), sugar beet (Beta vulgaris), velvetleaf (Abutilon theophrasti), wheat (Triticum aestivum), wild oat (Avena fatua) and purple nutsedge (Cyperus rotundus) tubers were planted and treated preemergence with test chemicals formulated in a non-phytotoxic solvent mixture which included a surfactant.
(§3) At the same time, these crop and weed species were also treated with postemergence applications of test chemicals formulated in the same manner. Plants ranged in height from 2 to 18 cm (1- to 4-leaf stage) for postemergence treatments. Plant species in the flood test consisted of rice (Oryza sativa), smallflower flatsedge (Cyperus difformis), duck salad (Heteranthera limosa) and bamyardgrass (Echinochloa crus-galli) grown to the 2-leaf stage for testing. Treated plants and controls were maintained in a greenhouse for twelve to sixteen days, after which all species were compared to controls and visually evaluated. Plant response ratings, summarized in Table B, are based on a scale of 0 to 10 where 0 is no effect and 10 is complete control. A dash (−) response means no test result.

[5] = test system: wheat (Triticum aestivum); assay: Test B pre-/postemergence; set-up: key: 0 is no effect; 10 is complete control
Excerpt: as §2, §3

corn (Zea mays) = assay: Test B pre-/postemergence; set-up: key: 0 is no effect; 10 is complete control
Excerpt: as §2, §3

[6] = test system: blackgrass (Alopecurus myosuroides); assay: Test B pre-/postemergence; set-up: key: 0 is no effect; 10 is complete control
Excerpt: as §2, §3

[7] = test system: crabgrass (Digitaria sanguinalis); assay: Test B pre-/postemergence; set-up: key: 0 is no effect; 10 is complete control
Excerpt: as §2, §3

[8] = test system: velvetleaf (Abutilon theophrasti); assay: Test B pre-/postemergence; set-up: key: 0 is no effect; 10 is complete control
Excerpt: as §2, §3

[9] = test system: momingglory (Ipomoea hederacea); assay: Test B pre-/postemergence; set-up: key: 0 is no effect; 10 is complete control
Excerpt: as §2, §3

[10] = test system: pigweed (Amaranthus retroflexus); assay: Test B pre-/postemergence; set-up: key: 0 is no effect; 10 is complete control
Excerpt: as §2, §3

soybean (Glycine max) = assay: Test B pre-/postemergence; set-up: key: 0 is no effect; 10 is complete control
Excerpt: as §2, §3

rape (Brassica napus) = assay: Test B pre-/postemergence; set-up: key: 0 is no effect; 10 is complete control
Excerpt: as §2, §3

wild oat (Avena fatua) = assay: Test B pre-/postemergence; set-up: key: 0 is no effect; 10 is complete control
Excerpt: as §2, §3

[11] = test system: purple nutsedge (Cyperus rotundus); assay: Test B pre-/postemergence; set-up: key: 0 is no effect; 10 is complete control
Excerpt: as §2, §3

[12] = test system: sugar beet (Beta vulgaris); assay: Test B pre-/postemergence; set-up: key: 0 is no effect; 10 is complete control
Excerpt: as §2, §3

[13] = test system: giant foxtail (Setaria faberii); assay: Test B pre-/postemergence; set-up: key: 0 is no effect; 10 is complete control
Excerpt: as §2, §3

[14] = test system: cocklebur (Xanthium strumarium); assay: Test B pre-/postemergence; set-up: key: 0 is no effect; 10 is complete control
Excerpt: as §2, §3

[15] = test system: broadleaf signalgrass (Brachiaria decumbens); assay: Test B pre-/postemergence; set-up: key: 0 is no effect; 10 is complete control
Excerpt: as §2, §3

[16] = Rate 62 g/ha, Postemergence (flood test)
[17] = Rate 125 g/ha, Postemergence, flood test
[18] = Rate 250 g/ha, Postemergence (flood test species)

## Cc1cnc(-c2ccc(C(F)(F)F)cc2)nc1C(C#N)c1cccc(C(F)(F)F)c1 (racemic) [Compound 17]
[1]; [16]
  Plant response rating, S. Flatsedge: 2
[1]; [17]
  Plant response rating, S. Flatsedge: 3
[1]; [18]
  Plant response rating, S. Flatsedge: 5
[2]; [16]
  Plant response rating, Barnyardgrass: 4
[2]; [17]
  Plant response rating, Barnyardgrass: 4
[2]; [18]
  Plant response rating, Barnyardgrass: 6
[3]; [16]
  Plant response rating, Ducksalad: 3
[3]; [17]
  Plant response rating, Ducksalad: 5
[3]; [18]
  Plant response rating, Ducksalad: 5
Rice (Oryza sativa); [16]
  Plant response rating, Rice: 4
Rice (Oryza sativa); [17]
  Plant response rating, Rice: 4
Rice (Oryza sativa); [18]
  Plant response rating, Rice: 6
[4]; Rate 62 g/ha, Postemergence
  Plant response rating, Bedstraw: 8
[4]; Rate 62 g/ha, Preemergence
  Bedstraw plant response rating: 1
[4]; Rate 125 g/ha, Postemergence
  Plant response rating, Bedstraw: 9
[4]; Rate 125 g/ha, Preemergence
  Bedstraw plant response rating: 3
[4]; Rate 250 g/ha, Postemergence
  Plant response rating, Bedstraw: 9
[4]; Rate 250 g/ha, Preemergence
  Plant response rating, Bedstraw: 5
[5]; Rate 62 g/ha, Postemergence
  Plant response rating, Wheat: 3
[5]; Rate 62 g/ha, Preemergence
  Wheat plant response rating: 0
[5]; Rate 125 g/ha, Postemergence
  Plant response rating, Wheat: 3
[5]; Rate 125 g/ha, Preemergence
  Wheat plant response rating: 1
[5]; Rate 250 g/ha, Postemergence
  Plant response rating, Wheat: 4
[5]; Rate 250 g/ha, Preemergence
  Plant response rating, Wheat: 3
Corn (Zea mays); Rate 62 g/ha, Postemergence
  Plant response rating, Corn: 2
Corn (Zea mays); Rate 62 g/ha, Preemergence
  Corn plant response rating: 0
Corn (Zea mays); Rate 125 g/ha, Postemergence
  Plant response rating, Corn: 2
Corn (Zea mays); Rate 125 g/ha, Preemergence
  Corn plant response rating: 0
Corn (Zea mays); Rate 250 g/ha, Postemergence
  Plant response rating, Corn: 3
Corn (Zea mays); Rate 250 g/ha, Preemergence
  Plant response rating, Corn: 1
[6]; Rate 62 g/ha, Postemergence
  Plant response rating, Blackgrass: 3
[6]; Rate 62 g/ha, Preemergence
  Blackgrass plant response rating: 2
[6]; Rate 125 g/ha, Postemergence
  Plant response rating, Blackgrass: 6
[6]; Rate 125 g/ha, Preemergence
  Blackgrass plant response rating: 6
[6]; Rate 250 g/ha, Postemergence
  Plant response rating, Blackgrass: 7
[6]; Rate 250 g/ha, Preemergence
  Plant response rating, Blackgrass: 9
[7]; Rate 62 g/ha, Postemergence
  Plant response rating, Crabgrass: 4
[7]; Rate 62 g/ha, Preemergence
  Crabgrass plant response rating: 3
[7]; Rate 125 g/ha, Postemergence
  Plant response rating, Crabgrass: 4
[7]; Rate 125 g/ha, Preemergence
  Crabgrass plant response rating: 8
[7]; Rate 250 g/ha, Postemergence
  Plant response rating, Crabgrass: 4
[7]; Rate 250 g/ha, Preemergence
  Plant response rating, Crabgrass: 9
[8]; Rate 62 g/ha, Postemergence
  Plant response rating, Velvetleaf: 2
[8]; Rate 62 g/ha, Preemergence
  Velvetleaf plant response rating: 0
[8]; Rate 125 g/ha, Postemergence
  Plant response rating, Velvetleaf: 4
[8]; Rate 125 g/ha, Preemergence
  Velvetleaf plant response rating: 1
[8]; Rate 250 g/ha, Postemergence
  Plant response rating, Velvetleaf: 7
[8]; Rate 250 g/ha, Preemergence
  Plant response rating, Velvetleaf: 1
[9]; Rate 62 g/ha, Postemergence
  Plant response rating, Morningglory: 7
[9]; Rate 62 g/ha, Preemergence
  Morningglory plant response rating: 0
[9]; Rate 125 g/ha, Postemergence
  Plant response rating, Morningglory: 8
[9]; Rate 125 g/ha, Preemergence
  Morningglory plant response rating: 1
[9]; Rate 250 g/ha, Postemergence
  Plant response rating, Morningglory: 8
[9]; Rate 250 g/ha, Preemergence
  Plant response rating, Morningglory: 2
[10]; Rate 62 g/ha, Postemergence
  Plant response rating, Redroot pigweed: 9
[10]; Rate 62 g/ha, Preemergence
  Redroot pigweed plant response rating: 4
[10]; Rate 125 g/ha, Postemergence
  Plant response rating, Redroot pigweed: 10
[10]; Rate 125 g/ha, Preemergence
  Redroot pigweed plant response rating: 9
[10]; Rate 250 g/ha, Postemergence
  Plant response rating, Redroot pigweed: 10
[10]; Rate 250 g/ha, Preemergence
  Plant response rating, Redroot pigweed: 10
Soybean (Glycine max); Rate 62 g/ha, Postemergence
  Plant response rating, Soybean: 3
Soybean (Glycine max); Rate 62 g/ha, Preemergence
  Soybean plant response rating: 0
Soybean (Glycine max); Rate 125 g/ha, Postemergence
  Plant response rating, Soybean: 3
Soybean (Glycine max); Rate 125 g/ha, Preemergence
  Soybean plant response rating: 0
Soybean (Glycine max); Rate 250 g/ha, Postemergence
  Plant response rating, Soybean: 8
Soybean (Glycine max); Rate 250 g/ha, Preemergence
  Plant response rating, Soybean: 0
Rape (Brassica napus); Rate 62 g/ha, Postemergence
  Plant response rating, Rape: 7
Rape (Brassica napus); Rate 62 g/ha, Preemergence
  Rape plant response rating: 0
Rape (Brassica napus); Rate 125 g/ha, Postemergence
  Plant response rating, Rape: 8
Rape (Brassica napus); Rate 125 g/ha, Preemergence
  Rape plant response rating: 2
Rape (Brassica napus); Rate 250 g/ha, Postemergence
  Plant response rating, Rape: 8
Rape (Brassica napus); Rate 250 g/ha, Preemergence
  Plant response rating, Rape: 3
Wild oat (Avena fatua); Rate 62 g/ha, Postemergence
  Plant response rating, Wild oats: 3
Wild oat (Avena fatua); Rate 62 g/ha, Preemergence
  Wild oats plant response rating: 2
Wild oat (Avena fatua); Rate 125 g/ha, Postemergence
  Plant response rating, Wild oats: 4
Wild oat (Avena fatua); Rate 125 g/ha, Preemergence
  Wild oats plant response rating: 5
Wild oat (Avena fatua); Rate 250 g/ha, Postemergence
  Plant response rating, Wild oats: 5
Wild oat (Avena fatua); Rate 250 g/ha, Preemergence
  Plant response rating, Wild oats: 8
[11]; Rate 62 g/ha, Postemergence
  Plant response rating, Nutsedge: 0
[11]; Rate 62 g/ha, Preemergence
  Nutsedge plant response rating: 0
[11]; Rate 125 g/ha, Postemergence
  Plant response rating, Nutsedge: 0
[11]; Rate 125 g/ha, Preemergence
  Nutsedge plant response rating: 0
[11]; Rate 250 g/ha, Postemergence
  Plant response rating, Nutsedge: 0
[11]; Rate 250 g/ha, Preemergence
  Plant response rating, Nutsedge: 0
[12]; Rate 62 g/ha, Postemergence
  Plant response rating, Sugarbeets: 9
[12]; Rate 62 g/ha, Preemergence
  Sugarbeets plant response rating: 1
[12]; Rate 125 g/ha, Postemergence
  Plant response rating, Sugarbeets: 10
[12]; Rate 125 g/ha, Preemergence
  Sugarbeets plant response rating: 8
[12]; Rate 250 g/ha, Postemergence
  Plant response rating, Sugarbeets: 10
[12]; Rate 250 g/ha, Preemergence
  Plant response rating, Sugarbeets: 9
[13]; Rate 62 g/ha, Postemergence
  Plant response rating, Giant foxtail: 2
[13]; Rate 62 g/ha, Preemergence
  Giant foxtail plant response rating: 5
[13]; Rate 125 g/ha, Postemergence
  Plant response rating, Giant foxtail: 4
[13]; Rate 125 g/ha, Preemergence
  Giant foxtail plant response rating: 10
[13]; Rate 250 g/ha, Postemergence
  Plant response rating, Giant foxtail: 5
[13]; Rate 250 g/ha, Preemergence
  Plant response rating, Giant foxtail: 10
[14]; Rate 62 g/ha, Postemergence
  Plant response rating, Cocklebur: 4
[14]; Rate 62 g/ha, Preemergence
  Cocklebur plant response rating: 0
[14]; Rate 125 g/ha, Postemergence
  Plant response rating, Cocklebur: 8
[14]; Rate 125 g/ha, Preemergence
  Cocklebur plant response rating: 0
[14]; Rate 250 g/ha, Postemergence
  Plant response rating, Cocklebur: 8
[14]; Rate 250 g/ha, Preemergence
  Plant response rating, Cocklebur: 0
[15]; Rate 62 g/ha, Postemergence
  Plant response rating, B. signalgrass: 4
[15]; Rate 62 g/ha, Preemergence
  B. signalgrass plant response rating: 3
[15]; Rate 125 g/ha, Postemergence
  Plant response rating, B. signalgrass: 5
[15]; Rate 125 g/ha, Preemergence
  B. signalgrass plant response rating: 7
[15]; Rate 250 g/ha, Postemergence
  Plant response rating, B. signalgrass: 7
[15]; Rate 250 g/ha, Preemergence
  Plant response rating, B. signalgrass: 9
